Peptide text beside a SMILES is read from it.
Columns and labels:
[1] = system: pThr17-PLN; type: cell-based; details: neonatal rat cardiomyocytes; Suppl. Fig. 6a–b
[2] = system: CaMKIIδ-T287A; test: In vitro CaMKII kinase assay; type: biochemical; details: CaM omitted; 32P incorporation into syntide, n=6
[3] = system: CaMKIIδ-T287A; test: CaMKIIδ-catalyzed phosphorylation of Thr17-PLN at 0.5 μM Ca2+, immunoblot; type: biochemical; details: 0.5 μM free Ca2+
[4] = system: CaMKIIδ-T287A; test: Immunoprecipitation of CaM with CaMKIIδ-T287A; type: binding; details: immunoprecipitation in the presence of CaM, n=15
[5] = system: CaMKIIδ; test: Overlay of 20-mer overlapping CaMKIIδ peptide arrays with biotinylated peptide; type: binding; details: 20-mer overlapping CaMKIIδ peptides on membranes
[6] = system: cardiomyocytes
[7] = target: T1, CaMKIIδ-T287D (Homo sapiens, UniProt Q13557, T287D); test: CaMKIIδ-T287D-catalyzed phosphorylation of biotin-ahx-PLN; type: biochemical; details: biotin-ahx-PLN (1–30) as substrate, vs scrambled control peptide, n=7
T1 sequence (Q13557 whole entry T287D): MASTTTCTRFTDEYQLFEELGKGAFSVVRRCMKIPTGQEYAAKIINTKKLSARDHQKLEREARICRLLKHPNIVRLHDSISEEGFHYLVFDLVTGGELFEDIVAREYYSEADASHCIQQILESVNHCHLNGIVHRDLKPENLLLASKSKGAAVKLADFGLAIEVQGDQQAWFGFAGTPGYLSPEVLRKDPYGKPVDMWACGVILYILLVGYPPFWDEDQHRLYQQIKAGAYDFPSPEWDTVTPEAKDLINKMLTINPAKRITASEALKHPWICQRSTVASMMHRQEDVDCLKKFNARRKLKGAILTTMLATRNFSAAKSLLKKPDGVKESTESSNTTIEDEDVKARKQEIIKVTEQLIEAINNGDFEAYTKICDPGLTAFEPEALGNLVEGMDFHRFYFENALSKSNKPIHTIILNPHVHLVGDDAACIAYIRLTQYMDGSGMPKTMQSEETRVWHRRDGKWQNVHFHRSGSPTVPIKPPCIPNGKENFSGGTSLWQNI

[8] = target: T2, CaM (Homo sapiens, UniProt P0DP23); test: SPR of immobilized biotin-ahx-AKAP18δ; type: binding
[9] = target: T1, CaMKIIδ-T287D; test: In vitro CaMKII kinase assay; type: biochemical; details: 32P incorporation into syntide; compared among AKAP18δ-N sequences
[10] = target: T2, CaM; test: CaM-agarose precipitation in the presence of Ca2+, immunoblot; type: binding; details: Suppl. Fig. 4b–c
[11] = system: Ca^2+/CaM; test: ELISA-based binding of biotinylated peptide to CaM-coated wells; details: biotinylated peptide vs scrambled control, n=6
[12] = target: T1, CaMKIIδ-T287D; details: compared with AKAP18δ-N (55–98), Suppl. Fig. 2j–k

CC[C@H](C)[C@H](NC(=O)[C@H](CCC(N)=O)NC(=O)[C@H](Cc1ccc(O)cc1)NC(=O)[C@H](CC(C)C)NC(=O)[C@@H](NC(=O)[C@H](CCC(=O)O)NC(=O)[C@H](CCC(=O)O)NC(=O)CNC(=O)[C@H](Cc1ccccc1)NC(=O)[C@H](CCCNC(=N)N)NC(=O)[C@H](Cc1c[nH]cn1)NC(=O)[C@H](CC(=O)O)NC(=O)[C@@H](NC(=O)[C@H](Cc1ccccc1)NC(=O)[C@H](CCC(N)=O)NC(=O)[C@H](CCC(=O)O)NC(=O)[C@H](Cc1ccc(O)cc1)NC(=O)[C@H](CC(C)C)NC(=O)CNC(=O)[C@@H]1CCCN1C(=O)[C@H](CCC(=O)O)NC(=O)[C@@H](NC(=O)[C@H](CCCCN)NC(=O)[C@H](CCCNC(=N)N)NC(=O)[C@@H](NC(=O)CNC(=O)[C@H](CCCCN)NC(=O)[C@@H](N)CCCCN)C(C)C)[C@@H](C)CC)[C@@H](C)CC)[C@@H](C)CC)C(=O)N[C@@H](CC(=O)O)C(=O)O [AKAP18δ-C]
pThr17-PLN level [1]: augmented | substrate phosphorylation by CaMKIIδ-T287A [2]: increased substrate phosphorylation | Thr17-PLN phosphorylation by CaMKIIδ-T287A [3]: further increased Thr17-PLN phosphorylation in the presence of either AKAP18δ-C (tendency) | trapping of CaM to CaMKIIδ-T287A [4]: induced trapping of CaM | CaMKIIδ binding on peptide arrays [5]: too weak or dynamic to be detected | cytotoxicity (and changes at basal level) [6]: No cytotoxicity

CC[C@H](C)[C@H](NC(=O)[C@@H]1CCCN1C(=O)[C@@H](NC(=O)[C@H](CO)NC(=O)[C@H](CC(C)C)NC(=O)[C@H](Cc1ccccc1)NC(=O)[C@H](Cc1ccc(O)cc1)NC(=O)[C@H](CC(N)=O)NC(=O)[C@@H]1CCCN1C(=O)[C@H](CCC(N)=O)NC(=O)[C@H](Cc1ccc(O)cc1)NC(=O)[C@H](CC(=O)O)NC(=O)[C@H](CCCCN)NC(=O)[C@H](CCCCN)NC(=O)[C@H](C)NC(=O)[C@H](CCCCN)NC(=O)[C@H](CCCCN)NC(=O)[C@H](CCCNC(=N)N)NC(=O)[C@H](CCCCN)NC(=O)[C@H](CCCCN)NC(=O)[C@@H](NC(=O)[C@H](Cc1c[nH]cn1)NC(=O)[C@H](CC(=O)O)NC(=O)[C@H](CC(N)=O)NC(=O)[C@H](CCCNC(=N)N)NC(=O)[C@H](CC(=O)O)NC(=O)CNC(=O)[C@H](CCCNC(=N)N)NC(=O)[C@H](CC(N)=O)NC(=O)[C@H](CCC(=O)O)NC(=O)[C@H](CCCCN)NC(=O)[C@H](CO)NC(=O)[C@H](CCCNC(=N)N)NC(=O)[C@H](CCCCN)NC(=O)[C@@H]1CCCN1C(=O)[C@H](CC(N)=O)NC(=O)CNC(=O)[C@H](CCC(N)=O)NC(=O)[C@@H]1CCCN1C(=O)[C@@H](NC(=O)[C@H](CC(N)=O)NC(=O)CNC(=O)[C@H](CCC(N)=O)NC(=O)[C@@H]1CCCN1)C(C)C)C(C)C)[C@@H](C)CC)C(=O)O [AKAP18δ-N (55–98)]
CaMKIIδ-T287D-catalyzed phosphorylation of Thr17 in PLN [7]: reduced

CC[C@H](C)[C@H](NC(=O)[C@@H]1CCCN1C(=O)[C@@H](NC(=O)[C@H](CO)NC(=O)[C@H](CC(C)C)NC(=O)[C@H](Cc1ccccc1)NC(=O)[C@H](Cc1ccc(O)cc1)NC(=O)[C@H](CC(N)=O)NC(=O)[C@@H]1CCCN1C(=O)[C@H](CCC(N)=O)NC(=O)[C@H](Cc1ccc(O)cc1)NC(=O)[C@H](CC(=O)O)NC(=O)[C@H](CCCCN)NC(=O)[C@H](CCCCN)NC(=O)[C@H](C)NC(=O)[C@H](CCCCN)NC(=O)[C@H](CCCCN)NC(=O)[C@H](CCCNC(=N)N)NC(=O)[C@H](CCCCN)NC(=O)[C@@H](N)CCCCN)[C@@H](C)CC)C(=O)O [AKAP18δ-N (79–98)] (H-KKRKKAKKDYQPNYFLSIPI-OH; N-terminus and C-terminus assumed)
kon ([8]; read-out: association rate constant (ka)): 130 M⁻¹ s⁻¹ | koff ([8]; read-out: dissociation rate constant (kd)): 0.00053 s⁻¹ | effect on CaMKIIδ-T287D activity (in words) [9]: inhibitory | precipitation with CaM-agarose [10]: precipitated with CaM-agarose | CaM binding, ELISA-based assay [11]: confirmed | SPR binding to CaMKIIδ-T287D (in words) [12]: bound strongly

Reference: PMC9500498 (Circulation research, 2021)
